Laboratory results published in the supplement of paper PMC10477900.
Counter-ions that a name gives are not always drawn.

How the values were obtained:
HCT116 [1] = test: viability inhibition vs untreated; higher = more cytotoxic; conditions: 72 h
HCT116 [2] = conditions: 72 h
Procedure: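 HCT116 control and MTA1-KO (CRISPR) HCT116 cells were seeded in 384-well plates (800 cells/well), treated 16 h later with 237 metabolism-related anticancer drugs at five doses (10 uM, 2 uM, 400 nM, 80 nM, 16 nM) for 72 h, two replicates; viability by CCK8. Values are % inhibition of viability relative to untreated cells, plus fitted IC50.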

Row | SMILES | viability inhibition (HCT116 [1]; genotype: MTA1-KO, 16 nM) | viability inhibition (HCT116 [1]; genotype: MTA1-KO, 80 nM) | viability inhibition (HCT116 [1]; genotype: MTA1-KO, 400 nM) | viability inhibition (HCT116 [1]; genotype: MTA1-KO, 2000 nM) | viability inhibition (HCT116 [1]; genotype: MTA1-KO, 10000 nM) | viability inhibition (HCT116 [1]; genotype: control, 16 nM) | viability inhibition (HCT116 [1]; genotype: control, 80 nM) | viability inhibition (HCT116 [1]; genotype: control, 400 nM) | viability inhibition (HCT116 [1]; genotype: control, 2000 nM) | viability inhibition (HCT116 [1]; genotype: control, 10000 nM) | IC50 (HCT116 [2]; genotype: MTA1-KO) | IC50 (HCT116 [2]; genotype: control)
1 | Cc1ccc2nc(N)[nH]c(=O)c2c1Sc1ccncc1 [Nolatrexed] | 8.71% | 2.94% | -1.21% | 1.75% | 76% | -21.6% | -20.5% | 4.76% | -22.2% | -11.3% | 9.66 µM | > 10 µM
2 | COc1ccc([C@@H]2OC[C@H]3[C@@H]2CO[C@@H]3c2ccc(O[C@@H]3O[C@H](CO)[C@@H](O)[C@H](O)[C@H]3O)c(OC)c2)cc1OC [Forsythin] | 5.1% | -3.89% | -0.379% | 2.87% | 27.7% | 8.22% | 24% | 15.4% | -3.75% | 24.5% | > 10 µM | > 10 µM
3 | CC(=O)O[C@H]1C[C@H](O[C@H]2[C@@H](O)C[C@H](O[C@H]3[C@@H](O)C[C@H](O[C@H]4CC[C@@]5(C)[C@H](CC[C@@H]6[C@@H]5C[C@@H](O)[C@]5(C)[C@@H](C7=CC(=O)OC7)CC[C@]65O)C4)O[C@@H]3C)O[C@@H]2C)O[C@H](C)[C@H]1O[C@@H]1O[C@H](CO)[C@@H](O)[C@H](O)[C@H]1O [Lanatoside C] | 2.02% | 2.18% | 87.7% | 105% | 107% | -11.4% | 12.6% | 88% | 99.5% | 101% | 0.286 µM | 0.145 µM
4 | Nc1nc(NC2CC2)cc(-c2cccc(Cl)c2Cl)n1 [TH588] | -0.076% | 6.2% | 2.73% | 14.7% | 80.3% | -7.89% | -5.19% | -7.31% | -7.46% | 74% | 5.34 µM | 8.67 µM
5 | Cn1cc(C[C@@H](N)C(=O)O)c2ccccc21 [Indoximod] | -22.6% | -22% | -24.2% | -19% | 3.49% | -15.9% | -19.5% | -14.6% | -4.79% | 3.27% | > 10 µM | > 10 µM
6 | O=C(O)c1c[nH]c2cc(Cl)c(-c3ccc(C4(O)CCC4)cc3)cc12 | -7.04% | 0.458% | -9.68% | 0.998% | 72.2% | -1.55% | -12.5% | -12.9% | -5.3% | 7.54% | 3.94 µM | > 10 µM
7 | O=S(=O)(NCCSSCCNS(=O)(=O)c1cc(Cl)ccc1Cl)c1cc(Cl)ccc1Cl [KC7F2] | 3.77% | 14.6% | 13.5% | 9.73% | 16.2% | 25.3% | 14.3% | 11.1% | 9.06% | 24.4% | > 10 µM | > 10 µM
8 | COc1cccc(-c2ccc(NC(=O)C3=C(C(=O)O)CCC3)c(F)c2)c1 [Vidofludimus] | 16.3% | 14.4% | 15.2% | 18.4% | 72.5% | 14.5% | 16.4% | 19.6% | 28.3% | 60.9% | 7.17 µM | 8.85 µM
9 | CC[C@H](C)C(=O)O[C@H]1C[C@@H](C)C=C2C=C[C@H](C)[C@H](CC[C@@H]3C[C@@H](O)CC(=O)O3)[C@H]21 [Lovastatin] | -10.2% | -12.6% | -7.31% | -11.7% | -8.01% | 2.13% | -3.28% | 8.89% | 5.64% | 29.4% | > 10 µM | > 10 µM
10 | CCCC(=O)O[C@]1(C(=O)CO)CC[C@H]2[C@@H]3CCC4=CC(=O)CC[C@]4(C)[C@H]3[C@@H](O)C[C@@]21C [Hydrocortisone butyrate] | -3.78% | -0.209% | -6.9% | -15.3% | 17.3% | -10.8% | -15% | -3.07% | -16.7% | 41.3% | > 10 µM | > 10 µM
11 | NS(=O)(=O)Cc1noc2ccccc12 [Zonisamide] | 2.91% | -1.38% | -4.06% | -5.28% | -6.62% | -7.18% | -18.6% | 2.58% | 2.07% | 31.7% | > 10 µM | > 10 µM
12 | CC(C)c1ccc(C(=O)N=C(N)N)cc1S(C)(=O)=O [Cariporide] | -28.1% | -33.2% | -32% | -35.2% | -20.9% | 19.4% | -4.81% | -9.25% | -4.56% | 22.7% | > 10 µM | > 10 µM
13 | CN1CCN(C(=O)COc2ccc(C34CC5CC(CC(C5)C3)C4)cc2)CC1 | 0.53% | 0.971% | 2.4% | 3.12% | 55.4% | -2.5% | -2.81% | -1.07% | -8.95% | 7.86% | 9.27 µM | > 10 µM
14 | O=C(/C=C/c1ccc2ccc(C(F)(F)F)cc2n1)c1ccncc1 [PFK158] | -5.2% | -29.6% | -31.5% | -28.1% | 121% | 8.64% | -5.17% | 1.7% | -5.11% | 96.2% | 3.1 µM | 3.89 µM
15 | COc1cccc2cc(-c3nc(C4CCC(C(=O)O)CC4)n4ncnc(N)c34)[nH]c12 (stereo unspecified) [OSI027] | 12.5% | 9.23% | 10.1% | -2.44% | 2.62% | -12.5% | -20.5% | -21.1% | 13.8% | 42.3% | > 10 µM | > 10 µM
16 | CNCc1cc(-c2ccccc2F)n(S(=O)(=O)c2cccnc2)c1 [Vonoprazan fumarate] | 12% | -19.8% | -19.3% | -21.7% | -12.1% | -12.5% | -10.5% | -14.4% | -16% | 11.8% | > 10 µM | > 10 µM
17 | O=C(Cc1ccccc1)Nc1nnc(CCSCCc2nnc(NC(=O)Cc3ccccc3)s2)s1 [BPTES] | -12.8% | -12.2% | 0.728% | 8.71% | 41.5% | -3.88% | -3.14% | -1.6% | -0.809% | -19.2% | > 10 µM | > 10 µM
18 | O=C(Oc1ccc([N+](=O)[O-])cc1)N1CCC(C(O)(c2ccc3c(c2)OCO3)c2ccc3c(c2)OCO3)CC1 [JZL184] | 6.97% | 15.2% | 21.9% | 37.7% | 62.3% | 9.18% | -4.77% | -6.67% | -12.4% | 2.68% | 5.53 µM | > 10 µM
